Assay results reported in patent US9867832B2, “Pharmaceutical composition for inhibiting immune response through inducing differentiation into regulator T cells and promoting proliferation of regulator T cells” (LG CHEM, LTD., priority 2013, dated 2018).

Columns and labels:
[1] = test system: CD4+ T cells isolated from mouse spleen cells; assay: In vitro differentiation of CD4+ T cells into regulatory T cells (aCD3, aCD28, TGF-beta); assay type: cell-based
Method: Experimentation for investigating the effect of the compound of the present invention on the differentiation of lymphocyte Th cells was carried out. 5×10^5 CD4+ T cells isolated from mouse spleen cells were dispensed into a 24-well plate coated with 1 μg/ml of anti-CD3 (aCD3), and then treated with 1 μg/ml of […] (aCD28) and 5 ng/ml of TGF-beta to induce the differentiation into regulatory T cells for 3 days. Before the differentiation into regulatory T cells, the compound (tetrahydropyran-4-yl)-[2-phenyl-5-(1,1-dioxo-thiomorpholin-4-yl)methyl-1H-indol-7-yl]amine (hereinafter referred to as “Compound A”) (LG Life Sciences Ltd., Daejeon, Korea) of the present invention was treated with the concentration of 40 μM and 80 μM. For flow cytometry, anti-mouse CD4 PerCP, CD25 APC and FoxP3 PE fluorescence-labeled antibodies were added thereto and reacted at 4° C. for 30 minutes. After washing with PBS, the measurement was carried out with a flow cytometer (FACSCalibur™)
In the course that 5×10^5 CD4^+ T cells isolated from mouse spleen cells were dispensed into a 24-well plate coated with 1 μg/ml of anti-CD3 (aCD3), and then treated with 1 μg/ml of […] (aCD28) and 5 ng/ml of TGF-beta to induce the differentiation into regulatory T cells for 3 days, the groups were divided into (1) 40 μM or 80 μM of Compound A single-treated group, (2) 0.1 μM of retinoic acid (RA) single-treated group, (3) 1 μM of retinal treated group, (4) 0.1 μM of RA and 40 μM or 80 μM of Compound A treated group, and (5) 1 μM of retinal and 40 μM or 80 μM of Compound A treated group, and the effect on the differentiation into regulatory T cells of each group was then compared.

[2] = test system: CD4+ T cells isolated from the spleen cells of C57BL/6; assay: Differentiation into regulatory T cells in allogeneic immune cells in vitro; assay type: cell-based, mouse; settings: C57BL/6 CD4+ T cells with irradiated BALBc APCs; 5 days; various concentrations
Method: 1×10^6 CD4^+ T cells isolated from the spleen cells of C57BL/6 and BALBc antigen-presenting cells (APCs) irradiated at 20 Gy were added to a 48-well plate and incubated at 37° C. for 5 days. The incubation was carried out under the condition that allogeneic immune response by antigen-presenting cells is induced to the spleen cells, and the treatment with Compound A at various concentrations before incubation was carried out for comparative analysis. The cells were harvested after 5-day incubation, and for flow cytometry anti-mouse CD4 PerCP, CD25 APC and FoxP3 PE fluorescence-labeled antibodies were added thereto and reacted at 4° C. for 30 minutes. After washing with PBS, the measurement was carried out with a flow cytometer (FACSCalibur™).

HMGB1 = assay: Real-time PCR of HMGB1 expression in spleen cells of GVHD mice; assay type: in vivo; settings: GVHD mouse spleen cells, 7th and 14th day, time-dependent, vs control group
Method: Total RNA was extracted from the cells by the use of TRIzol reagent. 1 μg of RNA was reacted with AMV reverse transcriptase and random hexamer at 45° C. for 1 hour to synthesize cDNA. Real-time PCR was carried out by the use of a mixture in which 1 μg of cDNA as a template, primer S, primer AS and distilled water were mixed, and SYBR Green. The PCR was carried out by the use of I-IMGB 1 (5′-GATGGGCAAAGGAGATCCTAAG-3′ and 5′-TCACTTTTTTGTCTCCCCTTTGGG-3′) with the condition of 35 cycles of at 95° C. for 15 seconds, at 60° C. for 10 seconds and at 72° C. for 30 seconds. Fluorescent data were measured by the use of Rad CFX96 Real-Time System (Bio-Rad Laboratories).
It has been well known that the release of HMGB1 has a possibility of the function for regulating inflammation and immunity. Therefore, in this study the animals of the test group in which GVHD mouse model was treated with the compound of the present invention and the control model was sacrificed, RNA was extracted from spleen cells, and then cDNA was synthesized and a comparative study on the expression of HMGB1 was carried out by real-time PCR.

GVHD mouse model = assay: Allogeneic immune response (GVHD) mouse model: survival, body weight, GVHD clinical score, large intestine histology; assay type: in vivo
Method: 6-8 week-old C57BL/6 (H-2kb) mouse and BALB/c (H-2kd) mouse which have different MHC class from each other were purchased from OrientBio Co., Ltd. After passing the regulation of the management committee of the Department of Laboratory Animal, The Catholic University of Korea, the mice were used under its care. A recipient mouse BALB/c (H-2kd) was irradiated with systemic radiation at 800 cGy. Within 24 hours, bone marrow 5×10^6 cells and spleen 5×10^6 cells isolated from a donor mouse C57BL/6 […] were transplanted into the allogeneic recipient mouse intravenously to induce a graft-versus-host rejection reaction model. The bone marrow-transplanted mouse was observed and evaluation was made of the following: weight, pose, activity, hair condition and skin density with evaluation criteria on the total ten-point scale, two points per each item (Table 1).
4 μm of serial sections were obtained from the paraffin-embedded tissue, treated with xylene three times to remove paraffin, and then hydrated stepwise in 95%, 90% and 70% ethanol. After removing endogenous peroxidase in 0.5% hydrogen peroxide, the specimen was treated with normal goat serum for 30 minutes and then reacted with primary antibody which was diluted with 3% bovine serum albumin (BSA) in PBS according to the manufacturer's instruction for 1 hour. After primary antibody reaction to the expressed proteins directed to genes showing the difference of expression in the above study, the specimen was washed with Tris-buffered saline (TBS) three times, reacted with 5 μg/ml biotinylated anti-mouse/anti-rabbit IgG diluted in 3% BSA for 30 minutes and washed with TBS three times. The specimen was kept in 3 μg/ml horseradish peroxidase streptoavidin for 30 minutes, color development was carried out by the use of DAB and hydrogen peroxide, and counter staining was carried out with Meyer's hematoxylin or 1% methyl green. […]

[3] = test system: CD4+CD25+Foxp3+ regulatory T cells; assay: Increase of regulatory T cells in in vivo GVHD mouse model (Example 10); settings: intravenous, four times a week for two weeks, spleen flow cytometry
Method: 6-8 week-old C57BL/6 (H-2kb) mouse and BALB/c (H-2kd) mouse which have different MHC class from each other were used. A recipient mouse BALB/c (H-2kd) was irradiated with systemic radiation at 8 Gy. Within 24 hours, bone marrow 5×10^6 cells and spleen 5×10^6 cells isolated from a donor mouse C57BL/6 […] were transplanted into the recipient mouse intravenously to induce graft-versus-host rejection reaction model (GVHD model). Compound A was intravenously injected into the GVHD model four times a week for two weeks. Mice were sacrificed, single-cell isolation was carried out, and the function of immune regulation in the spleen was investigated via flow cytometry. As a result, it was confirmed that in the group in which Compound A was administered CD4^+CD25^+Foxp3^+ regulatory T cells were increased.

[4] = test system: CD4+CD25+Foxp3+ regulatory T cells; assay: Flow cytometry of spleen cells of GVHD mice (regulatory T cells, CD4+IL-4, CD4+IFN-γ); assay type: in vivo; settings: GVHD mouse spleen
Method: Mice were divided into a GVHD group in which (tetrahydropyran-4-yl)-[2-phenyl-5-(1,1-dioxo-thiomorpholin-4-yl)methyl-1H-indol-7-yl]amine (LG Life Sciences Ltd., Daejeon, Korea, hereinafter referred to as “Compound A”) was treated as a test group and a GVHD group in which Compound A was not treated as a control group. The spleens of each group were isolated and single-cell isolation was then carried out. The expression of CD4+CD25+Foxp3+, which is the phenotype of regulatory T cell, and CD4+IFN-γ cells and CD4+IL-4 cells were analyzed by the use of fluorescent monoclonal antibodies and a flow cytometer.
The present inventors found out that in GVHD mouse model, immune transplant rejection was decreased, the production of ROS and HMGB1, and cellular necrosis in tissues were suppressed by the compound of the present invention, so that they intended to observe the possibility of regulating immune response in immune disease animal model. Accordingly, mice of the test group in which the compound of the present invention was treated and the control group were sacrificed, their spleens were isolated, single-cell isolation was carried out, and the function of immune regulation was searched via flow cytometry. As a result, in the group in which the compound of the present invention was treated CD4+CD25+Foxp3+ immune regulatory cells (regulatory T cells) were increased 6 times or more, as compared with the control group. […] In GVHD model, after irradiation of high-dose radiation the transplanted T cells of the donor are activated and proliferated by antigen-presenting cells of the host to secrete IFN-γ which is known as a representative GVHD causing cytokine. […] Therefore, it can be known that the compound of the present invention can suppress immune response by suppressing the activation of the transplanted T cells.

[5] = test system: reactive oxygen species (ROS); assay: Measurement of reactive oxygen species (ROS) in spleen cells of GVHD mice; assay type: in vivo; settings: GVHD mouse spleen cells; 7th and 14th day; dose- and time-dependent; vs control group
Method: Animals of each group were sacrificed, and their spleens were isolated. After single-cell isolation, the obtained cells were washed with phosphate-buffered saline (PBS) twice. The reaction with 3 μM carboxy-H2DCFDA reagent was carried out at 37° C. for 10 minutes. After washing with PBS, the analysis was carried out with a flow cytometer at 540 nm.
Accordingly, the present inventors observed immune response by oxidative stress via GVHD mouse model.

O=S1(=O)CCN(Cc2cc(NC3CCOCC3)c3[nH]c(-c4ccccc4)cc3c2)CC1 [Compound A, (tetrahydropyran-4-yl)-[2-phenyl-5-(1,1-dioxo-thiomorpholin-4-yl)methyl-1H-indol-7-yl]amine]
differentiation into regulatory T cells ([1]; CD4+ T cells with aCD3, aCD28, TGF-beta, 40 μM and 80 μM): increased in a Compound A concentration-dependent manner
expression of Foxp3+ ([1]; CD4+ T cells with aCD3, aCD28, TGF-beta, 40 μM and 80 μM, 3 days, vs control without Compound A): nearly doubled
expression of Foxp3+ (alone or in combination) ([1]; aCD3, aCD28, TGF-beta, Compound A 40 or 80 μM, RA 0.1 μM, retinal 1 μM): increased to a similar extent to the case of treating retinal or RA
regulatory T cells [2]: increased according to the concentration of Compound A
release (expression) of HMGB1 (HMGB1): significantly suppressed
survival rate (GVHD mouse model; 0.3 or 1 mg/kg (FIG. 2), compared with non-treated group): considerably increased
body weight (GVHD mouse model; FIGS. 1 and 2): significant results
graft-versus-host reaction (GVHD clinical score) (GVHD mouse model; FIGS. 1 and 2): significant results
CD4+CD25+Foxp3+ regulatory T cells [3]: increased
increase of CD4+CD25+Foxp3+ immune regulatory cells (regulatory T cells) ([4]; compared with control group): ≥ 6 times
CD4+IFN-γ ([4]; vs control group): decreased by more than half
CD4+IL-4 cells ([4]; vs control group): increased
generation ratio of reactive oxygen species in cells [5]: significantly suppressed
